According to patent publication US20150056209A1, “PEPTIDE MIMOTOPES TO OXIDATION SPECIFIC EPITOPES” (The Regents of the University of California, priority 2012, published 2015):

B1: phage clone A39 (peptide, not shown: large carriers)
chain: GWGNKTPSQDVHGGGS
B2: phage clone A33 (peptide, not shown: large carriers)
chain: HQLSNKDEQTPQGGGS
B3: phage clone M7 (peptide, not shown: large carriers)
chain: ADPFSPTNRIPLGGGS
B4: phage clone M36 (peptide, not shown: large carriers)
chain: DYTNSVSMRYLSGGGS

What was measured:
LRO4 [1] = assay: Phage ELISA, binding of phage clones to coated LRO4; parameters: species or system murine; details: 10^10 pfu/ml, OD 405-490 nm
Experimental: (§1) Phage ELISA was performed as described by NEB with minor modifications. Ninety six-well ELISA plates (Nunc Maxisorp) were coated with 5 μg/mL LRO4 mAb or control IgM mAb in NaHCO3 buffer (pH 8.6) at 50 μL/well ON at 4° C. Wells were washed with TBS containing 0.5% Tween 20 and then blocked with blocking buffer (TBS-T containing 1% BSA) at 200 μL/well for 1 hour at RT. After further washing, 10^10 pfu/ml of phage amplificates diluted in blocking buffer were added to the wells at 50 μL/well for 2 hours at RT. Wells were washed again, and an HRP-labeled anti-M13 mAb conjugate (no. 27-9421-01; GE Healthcare, Amersham, UK) diluted 1:1,000 in blocking buffer was added for 1 hour at RT followed by the addition of an 2,2′-azino-bis(3-ethylbenzothiazoline-6-sulphonic acid) (ABTS) (Sigma-Aldrich) substrate solution for 1 hour at RT. The binding reactivity of selected phage clones was measured at OD 405-490 nm using a BioTek Synergy 2 plate reader.

isotype control IgM = assay: Phage ELISA, binding of phage clones to isotype control IgM; details: 10^10 pfu/ml, OD 405-490 nm
Experimental: Briefly, LRO4 or a control isotype anti-KLH IgM Ab (C48-6; BD Bioscience-Pharmingen, USA) were coated in buffer containing 0.1 M NaHCO3 (pH 8.5) on ELISA plates (Nunc Maxisorp, Roskilde, Denmark) overnight (ON) at 4° C. at a concentration of 100 μg/ml for the 1st, 50 μg/ml for the 2nd, and 10 μg/ml for the 3rd biopanning round. The next day, wells were washed with TBS containing 0.05% v/v Tween 20 (TBS-T) and incubated with blocking buffer containing 0.1M NaHCO3 (pH 8.6) and 5 mg/mL bovine serum albumin (BSA) for 1 hour at room temperature (RT). After further washing with TBS-T, 10 μL of a library solution (containing 2×10^12 phages) diluted in 100 μl of blocking buffer were first added to wells coated with control IgM (negative selection) and then unbound phages were transferred to wells coated with LRO4 (positive selection) and incubated at RT. The incubation time for negative or positive selection was reduced from 60 min for the 1st round to 30 min for the 2nd as well as 3rd biopanning round. Thereafter, plates were washed 5 times with TBS-T to remove unbound phages. To further elute nonspecifically bound phages, wells were incubated with 100 μL of 100 μg/ml of native LDL for 1 hour at RT. After washing up to 5 times with TBS-T, bound phages were eluted with 100 μL of elution buffer containing 0.2 M glycine-HCl (pH 2.2) and 1 mg/mL BSA. Eluates were transferred to microfuge tubes and neutralized with 15 μL of 1 M Tris-HCL (pH 9.1). The eluted phages were then titrated and amplified for the next round of panning. The 2nd and 3rd biopanning round was carried out using amplified eluates from the first and second round as input phages, respectively. To remove nonspecifically bound phages and to increase the affinity in the subsequent biopanning rounds, wells were washed 15 and 30 times with 0.1% TBS-T in the 2nd and 0.5% TBS-T in the 3rd rounds of biopanning, respectively. In the last biopanning round, LRO4-bound phages were competitively eluted with increasing concentrations (3-150 μg/mL) of MDA-LDL diluted in blocking buffer followed by elution using elution buffer.
as §1

LRO4 [2] = assay: Competitive phage ELISA, phage binding to LRO4 in presence of MDA-LDL; parameters: species or system murine; details: in the presence of 50 μg/mL MDA-LDL
Experimental: For competitive phage ELISA, plates were coated with 5 μg/mL LRO4 and binding of 25 μL of phage solution at 2×10^10 pfu/mL was tested in the presence of 25 μL of MDA-LDL at 100 μg/mL. Bound phages were detected as described above and data expressed as values obtained in presence of competitor (B) divided by the values obtained in the absence of competitor (B0). A reciprocal competition assay was performed in which 50 μL of 5 μg/mL MDA-LDL was coated on microtiter wells, and binding of LRO4 that was preincubated for 30 min at RT with a solution containing either no or 1×10^10 pfu/mL phages with or without peptide was tested by chemiluminescent ELISA.
Table 2A-B. Binding characteristics of MDA-phagotopes. Sequences and binding characteristics of selected phagotopes from (A) the Ph.D.-12 and (B) the Ph.D.7C7 libraries, respectively. Individual phages were selected and amplified after the third round of biopanning, and binding to an isotype control IgM, LRO4, and LRO4 in the presence of 50 μg/mL MDA-LDL was measured by phage ELISA, as described in Methods. Numbers indicate OD values or for inhibition studies the fraction of OD values obtained in the absence and presence of soluble MDA-LDL (B/B0). Sequences indicate amino acid residues in peptide sequences that were deducted from the DNA sequence of each phagotope. “X” indicates an unidentified amino acid at this position. * for clones with identical sequence representative data of one clone are provided. (SEQ ID NOs:6-37)

LRO4 [3] = assay: phage ELISA, coated LRO4
[4] = target: control isotype anti-KLH IgM Ab (C48-6; BD Bioscience-Pharmingen); assay: phage ELISA, coated control IgM
LRO4 [5] = assay: competitive phage ELISA, coated LRO4; competitor MDA-LDL 50 µg/mL
[6] = Table 2B, Ph.D.7C7 library clones
[7] = Table 2A, Ph.D.-12 library clones

Molecule | Binding of phages to LR04 (LRO4 [1]; [6]) | Binding of phages to control IgM (isotype control IgM; [6]) | Inhibition of binding to LR04 (B/Bo) (LRO4 [2]; [6]) | Binding of phages to LR04 (LRO4 [1]; [7]) | Binding of phages to control IgM (isotype control IgM; [7]) | Inhibition of binding to LR04 (B/Bo) (LRO4 [2]; [7]) | further results
NNSNMPL [Cb10] | 0.6 OD | 0.2 OD | 0.02 |  |  |  | 
HRISNYAMELHS [G4] |  |  |  | 1.45 OD | 0.04 OD | 0.10 | 
NNWKMPL [Cb4] | 0.6 OD | 0.1 OD | 0.02 |  |  |  | 
QNMNNWTLASIM [A31] |  |  |  | 0.85 OD | 0.08 OD | 0.25 | 
NNYNMPL [Cb589] | 0.8 OD | 0.1 OD | 0.03 |  |  |  | 
ESWTNSWAHYFG [A36, B41, M35] |  |  |  | 1.16 OD | 0.03 OD | 0.14 | 
QSYTNDDVLRIS [M19] |  |  |  | 1.67 OD | 0.03 OD | 0.25 | 
HRMTNNAMDVFM [M6, G10] |  |  |  | 1.56 OD | 0.03 OD | 0.20 | 
NNRNMPL [Ca59, Cb1] | 0.8 OD | 0.1 OD | 0.06 |  |  |  | 
EVMNNWTLASIM [M30] |  |  |  | 1.04 OD | 0.03 OD | 0.06 | 
ADPFSPTNRIPL [M7] |  |  |  | 1.37 OD | 0.03 OD | 0.10 | 
NNSKMRL [Ca2] | 0.8 OD | 0.2 OD | 0.12 |  |  |  | 
NNQNMPL [Cb9] | 0.7 OD | 0.01 OD | 0.02 |  |  |  | 
HQLSNKDEQTPQ [A33] |  |  |  | 0.63 OD | 0.05 OD | 0.14 | 
B1 |  |  |  |  |  |  | OD (binding of phages to LR04) (LRO4 [3]): 1.19 OD; OD (binding of phages to control IgM) [4]: 0.05 OD; B/Bo (inhibition of binding to LR04) (LRO4 [5]): 0.19 B/Bo
B2 |  |  |  |  |  |  | OD (binding of phages to LR04) (LRO4 [3]): 0.63 OD; OD (binding of phages to control IgM) [4]: 0.05 OD; B/Bo (inhibition of binding to LR04) (LRO4 [5]): 0.14 B/Bo
B3 |  |  |  |  |  |  | OD (binding of phages to LR04) (LRO4 [3]): 1.37 OD; OD (binding of phages to control IgM) [4]: 0.03 OD; B/Bo (inhibition of binding to LR04) (LRO4 [5]): 0.1 B/Bo
B4 |  |  |  |  |  |  | OD (binding of phages to LR04) (LRO4 [3]): 1.47 OD; OD (binding of phages to control IgM) [4]: 0.01 OD; B/Bo (inhibition of binding to LR04) (LRO4 [5]): 0.07 B/Bo
